# Calls of active or inactive are those of the source.
# Assays:
# [1] = target: T1, Mannose-6-phosphate isomerase (Homo sapiens, UniProt P34949); test: inhibitors of human PMI, primary screen, biochemical, fluorescence intensity, coupled assay (AID 1209)
# T1 sequence (P34949 whole entry): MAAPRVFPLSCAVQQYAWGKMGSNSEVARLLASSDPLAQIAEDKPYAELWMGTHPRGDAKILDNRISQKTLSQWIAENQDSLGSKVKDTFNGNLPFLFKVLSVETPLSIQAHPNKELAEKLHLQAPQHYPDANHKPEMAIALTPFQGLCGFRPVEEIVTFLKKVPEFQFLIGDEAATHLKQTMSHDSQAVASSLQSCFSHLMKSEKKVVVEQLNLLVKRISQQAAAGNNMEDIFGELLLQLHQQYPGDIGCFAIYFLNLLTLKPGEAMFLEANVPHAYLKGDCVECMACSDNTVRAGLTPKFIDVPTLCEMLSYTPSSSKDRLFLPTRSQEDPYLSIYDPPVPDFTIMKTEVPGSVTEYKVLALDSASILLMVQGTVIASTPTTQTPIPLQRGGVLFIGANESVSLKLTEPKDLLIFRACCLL
# [2] = target: Histone-lysine N-methyltransferase NSD2 (Homo sapiens, UniProt O96028); assay type: biochemical
# [3] = cytotoxicity toward NIH3T3 fibroblasts, dose response, counter-screen, cell-based, ATP luminescence, mouse fibroblasts (AID 2010); assay type: functional;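 note: cells exposed to compound for about 90 hours before reading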
# [4] = target: T2, Microphthalmia-associated transcription factor (Homo sapiens, UniProt O75030); test: TRPM1 promoter luciferase signal decrease, dose response, MITF inhibitor project, cell-based, SK-MEL-5, cherry-picked, set 3 (AID 493073); assay type: functional
# T2 sequence (O75030 whole entry): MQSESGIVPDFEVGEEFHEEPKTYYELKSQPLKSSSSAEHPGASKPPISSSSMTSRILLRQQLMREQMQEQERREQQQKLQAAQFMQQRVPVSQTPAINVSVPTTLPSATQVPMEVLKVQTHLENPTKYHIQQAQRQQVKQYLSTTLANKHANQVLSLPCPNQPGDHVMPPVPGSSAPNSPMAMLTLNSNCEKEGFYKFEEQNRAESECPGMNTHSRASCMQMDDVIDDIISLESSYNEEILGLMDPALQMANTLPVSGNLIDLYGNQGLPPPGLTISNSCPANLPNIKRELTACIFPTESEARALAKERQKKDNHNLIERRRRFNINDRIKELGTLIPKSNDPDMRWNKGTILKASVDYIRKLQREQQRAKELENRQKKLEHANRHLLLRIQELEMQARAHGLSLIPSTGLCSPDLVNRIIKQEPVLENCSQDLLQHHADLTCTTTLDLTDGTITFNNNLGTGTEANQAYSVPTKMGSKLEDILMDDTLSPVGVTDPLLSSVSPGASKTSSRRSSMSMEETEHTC
# [5] = target: STE20-like serine/threonine-protein kinase (Homo sapiens, UniProt Q9H2G2); assay type: functional
# [6] = target: Homeodomain-interacting protein kinase 4 (Homo sapiens, UniProt Q8NE63); assay type: functional
# Activated CDC42 kinase 1 = Activated CDC42 kinase 1 (Homo sapiens, UniProt Q07912); test: Navigating the Kinome. Panel member name: ACK1; assay type: functional
# [7] = target: Serine/threonine-protein kinase Chk2 (Homo sapiens, UniProt O96017); assay type: functional;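 note: CHEK2 entry within a kinome-wide screening panel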
# [8] = target: Tyrosine-protein kinase ITK/TSK (Homo sapiens, UniProt Q08881); assay type: functional;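 note: affinity for ITK measured as one member of a broad kinase panel profiling binding across the kinome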
# [9] = target: Cyclin-dependent kinase 5 (Homo sapiens, UniProt Q00535); assay type: functional;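 note: CDK5 measured as one member of a kinase profiling panel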
# [10] = target: Dual specificity protein kinase CLK2 (Homo sapiens, UniProt P49760); assay type: functional
# [11] = target: Calcium/calmodulin-dependent protein kinase type 1 (Homo sapiens, UniProt Q14012); assay type: functional
# [12] = target: Dual specificity tyrosine-phosphorylation-regulated kinase 4 (Homo sapiens, UniProt Q9NR20); assay type: functional
# [13] = target: Casein kinase I isoform alpha (Homo sapiens, UniProt P48729); assay type: functional
# [14] = target: Vascular endothelial growth factor receptor 3 (Homo sapiens, UniProt P35916); assay type: functional;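 note: value from a kinome-wide profiling panel, with FLT4 as the panel member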
# [15] = target: Ribosomal protein S6 kinase alpha-3 (Homo sapiens, UniProt P51812); assay type: functional;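 note: measured within a kinome-wide profiling panel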
# [16] = target: Serine/threonine-protein kinase TAO1 (Homo sapiens, UniProt Q7L7X3); assay type: functional
# [17] = target: Serine/threonine-protein kinase pim-2 (Homo sapiens, UniProt Q9P1W9); assay type: functional;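 note: value comes from a broad kinase panel profiling study in which PIM2 was one of the panel members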
# [18] = target: High affinity nerve growth factor receptor (Homo sapiens, UniProt P04629); assay type: functional;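 note: NTRK1 tested as one member of a kinome-wide profiling panel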
# [19] = target: Mitogen-activated protein kinase 13 (Homo sapiens, UniProt O15264); assay type: functional
# [20] = target: Mast/stem cell growth factor receptor Kit (Homo sapiens, UniProt P10721); assay type: functional;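 note: KIT entry within a kinase panel assay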
# [21] = target: Macrophage colony-stimulating factor 1 receptor (Homo sapiens, UniProt P07333); assay type: functional;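 note: value comes from the Navigating the Kinome screening panel, CSF1R member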
# [22] = target: MAP/microtubule affinity-regulating kinase 3 (Homo sapiens, UniProt P27448); assay type: functional;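 note: MARK3 affinity measured as one member of a kinome panel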
# SRSF protein kinase 1 = SRSF protein kinase 1 (Homo sapiens, UniProt Q96SB4); assay type: functional;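 note: measured as one member of a kinome-wide kinase profiling panel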
# [23] = target: Interleukin-1 receptor-associated kinase 1 (Homo sapiens, UniProt P51617); assay type: functional;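 note: IRAK1 tested as one member of a kinome panel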
# [24] = target: Serine/threonine-protein kinase MRCK alpha (Homo sapiens, UniProt Q5VT25); assay type: functional
# Caspase-7 = target: T3, Caspase-7 (Homo sapiens, UniProt P55210); test: procaspase-7 activators, dose response, counter-screen for procaspase-3 activator project, biochemical, absorbance (AID 489013)
# T3 sequence (P55210 whole entry): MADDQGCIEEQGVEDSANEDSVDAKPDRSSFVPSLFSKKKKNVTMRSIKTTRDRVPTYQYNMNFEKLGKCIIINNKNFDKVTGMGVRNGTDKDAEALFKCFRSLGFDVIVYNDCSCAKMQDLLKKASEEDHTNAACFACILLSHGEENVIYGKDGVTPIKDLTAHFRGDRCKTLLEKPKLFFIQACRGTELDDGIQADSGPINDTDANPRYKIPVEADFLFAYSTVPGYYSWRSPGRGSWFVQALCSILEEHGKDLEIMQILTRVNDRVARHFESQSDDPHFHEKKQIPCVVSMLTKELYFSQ
# Sequence of Cyclin-dependent kinase 5 (Q00535 whole entry): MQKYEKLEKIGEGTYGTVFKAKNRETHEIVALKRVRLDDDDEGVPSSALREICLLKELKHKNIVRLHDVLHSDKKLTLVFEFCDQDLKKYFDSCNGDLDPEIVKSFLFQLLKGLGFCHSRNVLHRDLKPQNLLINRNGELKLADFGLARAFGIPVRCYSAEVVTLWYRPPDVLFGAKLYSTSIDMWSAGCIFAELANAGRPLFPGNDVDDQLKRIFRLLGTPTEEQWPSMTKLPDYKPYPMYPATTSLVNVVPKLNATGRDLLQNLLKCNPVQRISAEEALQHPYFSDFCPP
# Sequence of Ribosomal protein S6 kinase alpha-3 (P51812 whole entry): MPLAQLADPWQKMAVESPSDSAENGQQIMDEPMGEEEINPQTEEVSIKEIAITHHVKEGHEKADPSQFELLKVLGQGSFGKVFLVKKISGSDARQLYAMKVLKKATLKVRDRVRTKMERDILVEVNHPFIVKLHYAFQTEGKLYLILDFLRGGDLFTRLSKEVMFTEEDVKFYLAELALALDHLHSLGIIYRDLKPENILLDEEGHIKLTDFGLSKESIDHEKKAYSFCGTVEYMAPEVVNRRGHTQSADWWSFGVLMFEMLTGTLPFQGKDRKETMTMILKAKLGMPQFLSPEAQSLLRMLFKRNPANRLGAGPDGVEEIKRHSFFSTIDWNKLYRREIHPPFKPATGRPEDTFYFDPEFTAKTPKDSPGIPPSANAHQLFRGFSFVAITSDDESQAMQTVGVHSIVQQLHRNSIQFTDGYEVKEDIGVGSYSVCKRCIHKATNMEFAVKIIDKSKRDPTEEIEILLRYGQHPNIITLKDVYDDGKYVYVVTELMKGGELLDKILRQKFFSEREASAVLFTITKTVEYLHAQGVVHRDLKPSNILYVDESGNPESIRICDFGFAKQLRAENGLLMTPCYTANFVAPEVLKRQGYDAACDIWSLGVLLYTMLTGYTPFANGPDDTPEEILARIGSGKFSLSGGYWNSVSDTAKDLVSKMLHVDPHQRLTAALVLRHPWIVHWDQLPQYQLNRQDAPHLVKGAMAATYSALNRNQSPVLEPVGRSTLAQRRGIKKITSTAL
# Sequence of Serine/threonine-protein kinase Chk2 (O96017 whole entry): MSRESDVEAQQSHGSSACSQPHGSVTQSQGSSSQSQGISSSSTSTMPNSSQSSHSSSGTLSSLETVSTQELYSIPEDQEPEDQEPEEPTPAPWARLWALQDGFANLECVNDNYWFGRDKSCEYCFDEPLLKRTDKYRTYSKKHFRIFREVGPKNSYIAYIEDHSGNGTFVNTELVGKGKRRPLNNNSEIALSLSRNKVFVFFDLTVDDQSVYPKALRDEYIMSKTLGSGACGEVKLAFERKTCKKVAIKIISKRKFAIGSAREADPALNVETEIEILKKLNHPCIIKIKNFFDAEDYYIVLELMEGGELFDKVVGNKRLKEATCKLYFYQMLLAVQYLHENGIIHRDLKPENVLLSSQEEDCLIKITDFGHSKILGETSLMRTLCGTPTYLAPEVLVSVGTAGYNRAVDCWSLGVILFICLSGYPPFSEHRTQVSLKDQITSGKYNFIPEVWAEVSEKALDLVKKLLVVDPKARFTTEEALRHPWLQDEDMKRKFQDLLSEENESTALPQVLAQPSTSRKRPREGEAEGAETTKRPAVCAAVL
# Sequence of Vascular endothelial growth factor receptor 3 (P35916 whole entry): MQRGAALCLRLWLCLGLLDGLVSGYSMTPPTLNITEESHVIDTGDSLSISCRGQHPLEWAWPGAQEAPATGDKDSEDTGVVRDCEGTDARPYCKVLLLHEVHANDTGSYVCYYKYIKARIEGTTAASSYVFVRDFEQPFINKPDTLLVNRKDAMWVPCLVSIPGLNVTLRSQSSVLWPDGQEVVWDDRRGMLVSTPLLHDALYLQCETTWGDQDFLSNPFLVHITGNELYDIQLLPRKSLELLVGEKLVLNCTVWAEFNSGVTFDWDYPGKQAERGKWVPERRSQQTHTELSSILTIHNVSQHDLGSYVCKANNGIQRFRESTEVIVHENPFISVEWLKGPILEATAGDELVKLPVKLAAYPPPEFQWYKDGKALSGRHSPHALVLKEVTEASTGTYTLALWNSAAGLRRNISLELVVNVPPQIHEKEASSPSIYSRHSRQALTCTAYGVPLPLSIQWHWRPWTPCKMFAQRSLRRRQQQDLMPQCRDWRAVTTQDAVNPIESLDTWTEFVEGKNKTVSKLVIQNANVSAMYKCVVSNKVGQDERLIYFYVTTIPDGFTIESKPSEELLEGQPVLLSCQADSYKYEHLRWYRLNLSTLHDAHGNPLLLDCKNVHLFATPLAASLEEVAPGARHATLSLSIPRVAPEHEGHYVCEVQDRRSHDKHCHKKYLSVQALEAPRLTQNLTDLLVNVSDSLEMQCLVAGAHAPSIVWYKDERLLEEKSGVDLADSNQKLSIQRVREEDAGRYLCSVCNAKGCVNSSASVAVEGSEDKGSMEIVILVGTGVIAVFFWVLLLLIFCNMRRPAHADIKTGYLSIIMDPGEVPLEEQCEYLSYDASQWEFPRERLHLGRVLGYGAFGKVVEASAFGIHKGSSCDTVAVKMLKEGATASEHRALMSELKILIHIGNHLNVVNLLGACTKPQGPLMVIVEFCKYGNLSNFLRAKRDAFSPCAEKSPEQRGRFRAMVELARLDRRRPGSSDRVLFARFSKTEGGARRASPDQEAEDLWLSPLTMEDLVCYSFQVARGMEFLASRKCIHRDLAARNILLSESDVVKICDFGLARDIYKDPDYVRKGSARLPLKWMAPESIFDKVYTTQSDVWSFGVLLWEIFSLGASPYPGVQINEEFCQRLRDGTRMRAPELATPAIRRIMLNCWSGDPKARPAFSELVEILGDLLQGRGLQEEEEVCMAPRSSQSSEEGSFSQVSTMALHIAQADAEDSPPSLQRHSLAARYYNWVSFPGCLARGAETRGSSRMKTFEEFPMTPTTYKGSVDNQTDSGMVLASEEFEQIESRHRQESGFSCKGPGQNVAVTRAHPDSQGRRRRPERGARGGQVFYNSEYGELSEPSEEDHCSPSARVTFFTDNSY
# Sequence of High affinity nerve growth factor receptor (P04629 whole entry): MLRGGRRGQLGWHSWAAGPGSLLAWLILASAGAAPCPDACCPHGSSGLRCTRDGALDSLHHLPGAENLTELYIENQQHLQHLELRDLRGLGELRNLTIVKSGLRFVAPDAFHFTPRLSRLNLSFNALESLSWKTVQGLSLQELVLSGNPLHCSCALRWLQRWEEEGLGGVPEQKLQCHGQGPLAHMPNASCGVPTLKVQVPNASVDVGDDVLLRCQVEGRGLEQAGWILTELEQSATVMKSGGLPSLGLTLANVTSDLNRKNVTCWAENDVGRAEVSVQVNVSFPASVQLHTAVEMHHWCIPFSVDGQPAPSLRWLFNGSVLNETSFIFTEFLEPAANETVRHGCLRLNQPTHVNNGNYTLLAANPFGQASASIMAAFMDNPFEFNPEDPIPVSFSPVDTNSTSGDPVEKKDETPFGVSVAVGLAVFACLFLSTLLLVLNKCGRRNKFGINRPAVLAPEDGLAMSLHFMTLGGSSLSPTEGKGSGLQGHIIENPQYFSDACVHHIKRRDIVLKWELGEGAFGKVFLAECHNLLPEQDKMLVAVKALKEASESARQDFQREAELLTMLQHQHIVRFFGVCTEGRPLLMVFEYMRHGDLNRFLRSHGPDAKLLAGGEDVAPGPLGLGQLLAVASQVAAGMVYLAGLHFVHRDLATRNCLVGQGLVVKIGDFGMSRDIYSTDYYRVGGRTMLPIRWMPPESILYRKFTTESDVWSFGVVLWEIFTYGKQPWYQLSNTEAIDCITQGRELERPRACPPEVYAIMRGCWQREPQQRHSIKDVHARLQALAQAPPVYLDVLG
# Sequence of Dual specificity tyrosine-phosphorylation-regulated kinase 4 (Q9NR20 whole entry, canonical isoform): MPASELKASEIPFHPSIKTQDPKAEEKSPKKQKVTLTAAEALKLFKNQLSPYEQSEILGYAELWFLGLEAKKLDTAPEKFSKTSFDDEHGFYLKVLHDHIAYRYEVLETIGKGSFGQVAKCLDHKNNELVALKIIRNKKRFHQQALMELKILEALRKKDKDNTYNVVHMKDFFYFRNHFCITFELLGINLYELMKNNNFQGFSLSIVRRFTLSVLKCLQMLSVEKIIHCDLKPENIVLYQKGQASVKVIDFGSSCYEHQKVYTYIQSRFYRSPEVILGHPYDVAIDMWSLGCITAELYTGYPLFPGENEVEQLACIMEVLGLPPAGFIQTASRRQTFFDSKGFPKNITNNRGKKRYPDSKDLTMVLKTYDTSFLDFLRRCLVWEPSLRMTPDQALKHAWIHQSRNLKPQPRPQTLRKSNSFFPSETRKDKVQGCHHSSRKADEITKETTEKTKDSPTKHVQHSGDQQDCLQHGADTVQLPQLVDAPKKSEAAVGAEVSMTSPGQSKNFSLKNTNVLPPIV
# Sequence of Tyrosine-protein kinase ITK/TSK (Q08881 whole entry): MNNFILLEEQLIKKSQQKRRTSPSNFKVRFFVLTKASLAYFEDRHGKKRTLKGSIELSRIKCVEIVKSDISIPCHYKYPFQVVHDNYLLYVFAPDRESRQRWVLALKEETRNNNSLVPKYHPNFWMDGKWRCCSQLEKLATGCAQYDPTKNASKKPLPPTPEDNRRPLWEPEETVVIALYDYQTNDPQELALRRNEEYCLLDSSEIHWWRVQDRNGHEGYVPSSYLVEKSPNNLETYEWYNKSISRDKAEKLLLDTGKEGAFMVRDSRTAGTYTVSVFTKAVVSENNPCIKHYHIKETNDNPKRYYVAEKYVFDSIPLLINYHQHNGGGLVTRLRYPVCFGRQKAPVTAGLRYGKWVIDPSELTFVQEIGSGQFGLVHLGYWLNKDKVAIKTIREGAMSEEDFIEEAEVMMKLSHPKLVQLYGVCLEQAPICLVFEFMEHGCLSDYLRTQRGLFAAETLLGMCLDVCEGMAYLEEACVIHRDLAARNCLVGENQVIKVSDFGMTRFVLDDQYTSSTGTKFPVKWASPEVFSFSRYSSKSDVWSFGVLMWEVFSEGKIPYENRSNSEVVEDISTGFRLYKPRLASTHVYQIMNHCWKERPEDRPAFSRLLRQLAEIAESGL
smiles,measurement,setting,value
CC(C)N(C(=O)Nc1ccc2nsnc2c1)C(C)C,IC50,[1],> 50 µM (not active)
NS(=O)(=O)c1ccc(NC2=CC(=O)C(=O)c3ccccc32)cc1,AC50,[2],3.1 µM (active)
CCC(=O)NC(c1ccccc1OC)c1ccc2cccnc2c1O (configuration not stated),EC50,[3],1.67 µM (active)
same,AC50,[4],6.7 µM (active)
Clc1cc(-c2c[nH]c3ncccc23)nc(NC2CCCCC2)n1,Ki,[5],6.31 µM (active)
same,Ki,[6],1.26 µM (active)
same,Ki,Activated CDC42 kinase 1,> 3.98 µM (inactive)
same,Ki,[7],> 1.58 µM (inactive)
same,Ki,[8],1.26 µM (active)
same,Ki,[9],0.126 µM (active)
same,Ki,[10],> 1.26 µM (inactive)
same,Ki,[11],> 6.31 µM (inactive)
same,Ki,[12],0.501 µM (active)
same,Ki,[13],1.58 µM (active)
same,Ki,[14],0.251 µM (active)
same,Ki,[15],> 2 µM (inactive)
same,Ki,[16],> 7.94 µM (inactive)
same,Ki,[17],> 2 µM (inactive)
same,Ki,[18],2 µM (active)
same,Ki,[19],1.26 µM (active)
same,Ki,[20],> 1.26 µM (inactive)
same,Ki,[21],> 1.58 µM (inactive)
same,Ki,[22],0.158 µM (active)
same,Ki,SRSF protein kinase 1,0.794 µM (active)
same,Ki,[23],0.0501 µM (active)
same,Ki,[24],0.126 µM (active)
O=C(N/N=C/c1ccc(O)cc1O)c1ccc(CN2C(=O)c3cccc4cccc2c34)cc1,EC50,Caspase-7,> 85.3 µM (inactive)
